ChEMBL document CHEMBL5537195, “Novel Covalent Probe Selectively Targeting Glutathione Peroxidase 4 In Vivo: Potential Applications in Pancreatic Cancer Therapy” (J Med Chem, 2024)

Legend:
ASPC1 = test: Induction of ferroptosis in human ASPC1 cells assessed as reduction in cell viability incubated for 24 hrs followed by compound washout by CCK-8 assay; type: functional, cell-based; details: ASPC1, 24 h
SW1990 = test: Antiproliferative activity against human SW1990 cells assessed as inhibition of cell growth incubated for 72 hrs by CCK-8 assay; type: functional, cell-based; details: SW1990, 72 h

## C#CCN(Cc1ccc(S(=O)(=O)N(C)C#C)cc1)c1ccc(-c2nc3ccccc3s2)cc1
ASPC1
  IC50: 62 nM
SW1990
  IC50: 20 nM
